Laboratory results taken from publication PMC9609692, “Alternative Methotrexate Oral Formulation: Enhanced Aqueous Solubility, Bioavailability, Photostability, and Permeability” (Pharmaceutics, 2022).
One block for each compound: values may come before it.

Experiments:
[1] = Phase solubility study of MTX in cyclodextrin solutions; format: physicochemical; details: MTX with the cyclodextrin, aqueous solution, 25 °C, 1:1 complex
Method: The degree of complexation between MTX and β-CDs was determined through phase solubility experiments, as established by Higuchi and Conners. Briefly, an excess of MTX was added to the 10 mL aqueous solution of increasing concentrations (0 to 15 mM) containing each of β-CD, HP-β-CD, M-β-CD, and DM-β-CD. The samples tubes were then vortexed for a few seconds and placed in a water bath maintained at 100 rpm in 25 °C for 5 days (Maxturdy-30; Daihan Scientific, Wonju, Korea) to obtain the saturated complex suspension. The suspension samples obtained were then centrifuged at 10,000 rpm for 10 min and the supernatant was collected, and filtered using a 0.45 µm syringe filter. The samples were then diluted with a mobile phase to obtain the suitable concentrations before being quantified using a HPLC system. All concentrations were made in triplicate (n = 3).
The outcomes of the phase solubility tests were plotted against the known CD and MTX concentration in the sample and the resulting regression profiles was used to derive the association constant (Kα). The apparent association constant (Kα) was calculated from the phase solubility curve according to the following equation:(1) Kα=D :CD/D×CD=Slope/So1−Slope
The complexation efficiency (CE) of the IC system was calculated from the Slope of the phase solubility profiles. (2) CE=D :CD/CD=So×Kα=Slope/1−Slope

[2] = tested on: Caco-2 cells; parameters: method as in PMID 29498663, PMID 31761193; details: read-out: half-maximal inhibitory concentration (IC50) against Caco-2 cells; cited from earlier work
[3] = In vitro Caco-2 permeation experiment; format: in vitro ADME; details: human, Caco-2 monolayer, 50 µg/mL MTX
Method: The in vitro permeability of MTX and MTX/DM-β-CD formulation was evaluated using Caco-2 cells (passage no 45) and performed like the previously reported method. The cells were seeded (5 × 10^5 cells/well) onto filter inserts from 12-well transwell plates and grown at 37 °C with 5% CO2 for 24 h. The cells were then cultured for three weeks, with the media being replaced on alternate days. Caco-2 cells with TEER ≥ 500 Ω·cm^2 were used in this experiment, which is indicative of adequate monolayer formation.
To evaluate the A to B transfer, the medium from each well was replaced with prewarmed HBSS (washing of monolayer) and maintained at 37 °C for 15 min. The HBSS solution on both sides of the cell monolayer was removed by decanting and aspiration from the lower end of the plate well. Then, 0.5 mL of HBSS (pH 7.4) medium containing 50 µg/mL of MTX alone or eqvt. concentration of MTX/DM-β-CD formulation was placed to the dosing compartment (A) and 1.5 mL of fresh HBSS in the receiving compartment (B). […] MTX was quantified at m/z 455.2 ⟶ 308.1 while berberine at m/z 336.1 ⟶ 320.0.
The apparent permeability coefficient (Papp, cm/s) was calculated as:(3) Papp=(dQ/dt)/(C0×A)
The efflux ratio (ER) was calculated as:(4) ER=Papp (B→A)/Papp (A→B) where, Papp (B → A) and Papp (A → B) represents the apparent permeability of the investigated formulations.

[4] = for doses >40 mg/m^2; cited from earlier work
[5] = tested on: Caco-2 cells; experiment: MTT cytotoxicity assay; format: cell-based, human; details: up to 200 µM, 24 h incubation
Method: An MTT assay was used to assess the potential cytotoxic behavior of MTX and MTX/DM-β-CD on human intestinal epithelial cancer cells (Caco-2). The Caco-2 cells were grown in DMEM supplemented with 10% FBS, 1% v/v sodium pyruvate, L-glutamine, penicillin, and MEM non-essential amino acids. The cells (2 × 10^4 cells/well) were then seeded onto 96-well transwell plates and incubated at 37 °C with 5% CO2 for 24 h. New medium containing the tested formulations i.e., MTX and MTX/DM-β-CD (IC4), with varying concentrations, were added and incubated for 24 h. The culture medium was then aspirated, and the viability of the cells was determined by adding 20 μL/well of MTT solution to each 96-well plate and incubating for another 4 h. The formazan crystals were dissolved by adding 150 μL/well DMSO. The developed formazan was assayed at 570 nm, using a microplate reader with untreated cells serving as a control. All the tests were carried out in two microplates with six parallel wells each.

[6] = Photostability assessment; format: physicochemical; details: powder, 20 days, 25 °C/60% RH, 1.2 million lux·hr
Method: The free MTX powder and the prepared IC formulations were subjected to UV irradiation for a period of 20 days. The powdered samples were spread over the bottom surface of transparent glass vials and stored at 25 °C/60% RH in a photostability chamber (Model 6545-2; Caron, Marietta, OH, USA). There, the samples were exposed to a light source of 1.2 million lux·hr intensity. At scheduled time intervals, a few mg of the sample was drawn, and assayed for the drug content by HPLC method, as described above. At the end of the study period, the samples were physically inspected for any physical changes on the stability of MTX.

[7] = In vivo pharmacokinetic study after oral administration; parameters: species or system Sprague-Dawley rats; details: rats, equiv. 20 mg/kg MTX, n = 6
Method: To assess the in vivo pharmacokinetic parameters of free MTX and MTX-CD IC formulations, 30 male Sprague-Dawley rats (6–8 weeks old, weighing 280 ± 20 g) were used (Nara Biotech., Seoul, Korea). All the animals were fed with a normal laboratory diet and water and left for acclimatization in a laboratory environment for 3 days at 23–25 °C/50–55% RH. Care and handling of animals complied with the provisions of guidelines defined and agreed upon by the Institutional Animal Care and Use Committee at the Kyungpook National University (permit number. 2019-0054).
Before the experiment, the animals were divided into five groups with 6 animals per group and made to fast overnight. Each rat, anesthetized with ether, was fixed on a surgical board in the supine position by a thread. A polyethylene tube containing 50 IU/mL of heparin in saline was inserted into the right femoral artery of the rat for cannulation. Then, either 1 mL aqueous suspension of free MTX or the four MTX-CD IC formulations (Equiv. to 20 mg/kg of MTX) was administered orally to each of the rats using oral gavage. Blood samples (~0.3 mL) were drawn from the planted tube at various time periods of 5, 15, 30, 60, 120, 240, 480, 720, and 1440 min after the oral administration. The samples were then immediately transferred into heparin-containing microtubes and centrifuged at 10,000 rpm for 10 min to extract the plasma. The extracted plasma samples were transferred to other microtubes and stored at −20 °C until further analysis by HPLC.
Plasma (90 μL) was mixed with 10 μL of theophylline solution (1000 μg/mL in MeOH) as the internal standard and 100 μL of methanol, respectively. The samples (200 μL) were then centrifuged at 13,000 rpm for 10 min and the upper clear supernatant layer was drawn and injected into the HPLC system (20 μL) for the quantification of MTX. In addition, the blood samples drawn at pre-dose (0 h) were used to draw a six-point calibration plot. The Slope of the graph was linear with R^2 = 0.995 over the range of 25–2000 ng/mL. The mobile phase composition, flow rate, analytical column used, and UV wavelength of the HPLC method was similar to that described in Section 2.3. The pharmacokinetic (PK) parameters such as maximal plasma concentration (Cmax), time to reach Cmax (Tmax), were obtained from the plasma concentration vs. time plots. Moreover, the area under the plasma concentration vs. time curve (AUC0–∞) was calculated using the linear trapezoidal summation rule and elimination half-life (t1/2), and elimination rate constant (Kel) were obtained using non-compartmental model WinNonlin software (Pharsight Corp., Mountain View, CA, USA). Differences in the PK parameters were assessed with the one-way ANOVA test and a p value of less than 0.05 (p < 0.05) was considered statistically significant.

[8] = cited from earlier work
[9] = Particle size distribution by laser diffraction; format: physicochemical; details: powder
Method: The complete particle size distribution of free MTX powder and all four MTX-CD IC formulations was investigated by laser diffraction (Mastersizer 3000; Malvern Instruments, Malvern, UK). The particle size/distribution is expressed as Dx10, Dx50, and Dx90, taken from the cumulative distribution, where the particle diameters are measured at the 10th, 50th, and 90th percentiles, respectively. The experiments were performed in triplicate.

[10] = male, Sprague-Dawley, rat, plasma

Stability Constant (Kα) [1]: 574.48 M⁻¹
Compound: methyl-β-cyclodextrin [M-β-CD]

Stability Constant (Kα) [1]: 3114.69 M⁻¹
Compound: COCC1OC2OC3C(COC)OC(OC4C(COC)OC(OC5C(COC)OC(OC6C(COC)OC(OC7C(COC)OC(OC8C(COC)OC(OC1C(O)C2OC)C(OC)C8O)C(OC)C7O)C(OC)C6O)C(OC)C5O)C(OC)C4O)C(OC)C3O (stereo not drawn) [DM-β-CD, heptakis (2,6-di-O-methyl)-β-cyclodextrin]

Stability Constant (Kα) [1]: 552.25 M⁻¹
Compound: OC[C@H]1O[C@@H]2O[C@H]3[C@H](O)[C@@H](O)[C@@H](O[C@H]4[C@H](O)[C@@H](O)[C@@H](O[C@H]5[C@H](O)[C@@H](O)[C@@H](O[C@H]6[C@H](O)[C@@H](O)[C@@H](O[C@H]7[C@H](O)[C@@H](O)[C@@H](O[C@H]8[C@H](O)[C@@H](O)[C@@H](O[C@H]1[C@H](O)[C@H]2O)O[C@@H]8CO)O[C@@H]7CO)O[C@@H]6CO)O[C@@H]5CO)O[C@@H]4CO)O[C@@H]3CO [β-CD, β-cyclodextrin]

Compound: COc1cccc2c1C(=O)c1c(O)c3c(c(O)c1C2=O)C[C@@](O)(C(=O)CO)C[C@@H]3O[C@H]1C[C@H](N)[C@H](O)[C@H](C)O1 [doxorubicin]
IC50 [2]: 5 µM

Stability Constant (Kα) [1]: 433.56 M⁻¹
Compound: 2-hydroxylpropyl-β-CD [HP-β-CD]

Compound: CN(Cc1cnc2nc(N)nc(N)c2n1)c1ccc(C(=O)N[C@@H](CCC(=O)O)C(=O)O)cc1 [MTX, Methotrexate]
Papp A→B at 1 h, 50 µg/mL ([3]; HBSS pH 7.4, 1 h, read-out: Papp A to B transport): 0.57 ± 0.14 ×10⁻⁶ cm/s
efflux ratio at 1 h, 50 µg/mL ([3]; HBSS pH 7.4, read-out: efflux ratio (B to A/A to B)): 8
bioavailability [4]: ~ 18%
cytotoxicity against Caco-2 cells [5]: no substantial cytotoxicity
decrease in MTX concentration after UV irradiation [6]: 36.8 ± 1.7%
AUC [7, 10]: 1740 ± 295 ng·h/mL
Tmax [7, 10]: 1.13 ± 0.23 h
half-life [7, 10]: 324 ± 43.2 min
k el [7, 10]: 3.61e-05 s⁻¹
Cmax [7]: 265.63 ± 57.05 ng/mL
C logP [8]: 0.53
Dx (10) [9]: 3.60 ± 0.48 μm
Dx (50) [9]: 14.03 ± 2.97 μm
Dx (90) [9]: 103.73 ± 12.13 μm

Compound: CC(=O)O[C@@]12CO[C@@H]1C[C@H](O)[C@@]1(C)C(=O)[C@H](O)C3=C(C)[C@@H](OC(=O)[C@H](O)[C@@H](NC(=O)OC(C)(C)C)c4ccccc4)C[C@@](O)([C@@H](OC(=O)c4ccccc4)[C@H]21)C3(C)C [docetaxel]
IC50 [2]: 70 µM
